Experimental findings from US12083165B2, “Thymosin alpha 1 for use in treatment of cystic fibrosis” (SciClone Pharmaceuticals International (SG) PTE. LTD., priority 2015, dated 2024) are described below.

What all share (assay type): in vivo
Test [1] deals with TMEM16A. In words: DNA microarray analysis of mice with pulmonary aspergillosis. Conditions: unpublished results.
Test [2] concerns A. fumigatus-infected C57BL/6 and Cftr−/− mice. In words: IL-1 cytokine levels in BAL by ELISA in CF mice with aspergillosis. Conditions: 200 μg/kg/i.p. daily 6 days, 7 days post-infection. On the procedure: (§1) Mice. Wild-type (WT) inbred C57BL6 mice, 8 to 12 weeks old, were purchased from Charles River Breeding Laboratories (Calco, Italy). Genetically engineered homozygote Cftr^−/− mice (33) were bred at the Cystic Fibrosis core animal facility at San Raffaele Hospital, Milan, Italy. Experiments were performed following protocols approved by the institutional animal committee and in accordance with European Economic Community Council Directive as well as institutional animal care and use guidelines.
(§2) Infection and treatments. Mice were anesthetized by i.p. injection of 2.5% avertin (Sigma Chemical Co, St. Louis, MO) before intranasal instillation of 2×10^7 A. fumigatus (Af293) resting conidia/20 μl saline. For histology, paraffin-embedded tissue were stained with Periodic acid-Schiff (PAS), and BAL fluid collection was done as described (21, 22). Treatments were as follow: Tα1 and the scrambled polypeptide were supplied as purified (the endotoxin levels were <0.03 pg/ml, by a standard limulus lysate assay) sterile, lyophilized, acetylated polypeptide. The sequences were as follows: Ac-[…]O (Tα1) (SEQ ID NO:1) and Ac-[…]OH (scrambled peptide) (SEQ ID NO:2). The lyophilized powders were reconstituted in sterile water and 200 μg/kg/i.p. were given daily for 6 consecutive days beginning the day of the infection.
(§3) Cytokine determination by ELISA. Cytokine levels in lung homogenates from treated and untreated mice were determined by cytokine-specific ELISA (R&D Systems, Inc. Space Import-Export srl, Milan, Italy) as described (21, 22)
C57BL/6 and Cftr^−/− mice were infected intranasally with live A. fumigatus conidia and treated with 200 μg/kg/i.p. Tα1 daily for 6 consecutive days beginning the day of the infection. […] The levels of IL-1β, IL-1α and IL-1RA in the BAL were measured by ELISA (pg/ml) at 7 days post-infection. The results shown represent pooled data from two experiments. *P<0.05; **P<0.01; ***P<0.001.
In general terms: ELISA stands for enzyme-linked immunosorbent assay.

For test [3] the test system is unchanged. Kind of test: Th cytokines in lungs and transcription factors in draining thoracic lymph nodes (ELISA or RT-PCR). The method, then:
as §1, §2
Reverse transcriptase-polymerase chain reaction (RT-PCR). Total RNA extraction and synthesis and PCR of cDNA were done on total lung cells as described (21, 22). Amplification efficiencies were validated and normalized against Gapdh. The thermal profile for SYBR Green real-time PCR was at 95° C. for 3 min, followed by 40 cycles of denaturation for 30 s at 95° C. and an annealing/extension step of 30 s at 60° C. Each data point was examined for integrity by analysis of the amplification plot. The mRNA-normalized data were expressed as relative mRNA in treated cells compared to that of unstimulated cells.
as §3
The inflammatory Th17 pathway is involved in CF lung inflammation (21, 22, 43) while the Th2 pathway is associated with CF fungal allergy (44). For the assessment of the effects of Tα1 on Th cell activation, levels of Th cytokines in the lungs and of the corresponding transcription factors in the draining thoracic lymph nodes have been measured in C57BL/6 and Cftr^−/− mice infected and treated with Tα1 as above. Tα1 decreased Th17 (decreased levels of IL-17A and of the Th17 transcription factor Rorc), Th2 (low IL-4 and Gata3) cell activation while promoting both Th1 (increased IFN-γ and Tbet) and Treg (increased IL-10 and Foxp3) cell activity. […] The cytokine levels were assessed in lung homogenates (by ELISA or RT-PCR) and the expression of the corresponding Th transcription factors (by RT-PCR) in the draining thoracic lymph nodes. The results shown represent pooled data from two experiments. n.d. not done. *P<0.05; **P<0.01; ***P<0.001.

Setting [4] is: either type of mice (C57BL/6, Cftr−/−).
The mark [5] stands for this setting: draining thoracic lymph nodes, RT-PCR.

“Ac-Ser-Asp-Ala-Ala-Val-Asp-Thr-Ser-Ser-Glu-Ile-Thr-Thr-Lys-Asp-Leu-Lys-Glu-Lys-Lys-Glu-Val-Val-Glu-Glu-Ala-Glu-Asn-O (Ac-SDAAVDTSSEITTKDLKEKKEVVEEAEN-OH; not fully specified; printed as Ac-Ser-Asp-Ala-Ala-Val-Asp-Thr-Ser-Ser-Glu-Ile-Thr-Thr-Lys-Asp-Leu-Lys-Glu-Lys-Lys-Glu-Val-Val-Glu-Glu-Ala-Glu-Asn-O; listed as Homo sapiens) [Tα1, naturally occurring polypeptide of 28 amino acid; supplied as purified sterile, lyophilized, acetylated polypeptide]”: the “expression of TMEM16A in mice with pulmonary aspergillosis” value in test [1] is “greatly increased”. Also, the “levels of the inflammatory-blocking cytokine IL-1RA in the BAL” value in test [2] is recorded as “increased”. In test [2] (setting [4]), the “levels of IL-1α in the BAL” value was “sharply decreased” and the “levels of IL-1β in the BAL” value is reported as “sharply decreased”. Also, in test [3] (setting [5]), the “Foxp3 expression (Treg)” value was “increased”, the “Gata3 expression (Th2)” value is “low”, the “Tbet expression (Th1)” value was “increased” and the “Th17 transcription factor Rorc expression” value was “decreased”. In addition, in test [3] (lung homogenates), the “IFN-γ level (Th1)” value was “increased”, the “IL-4 level (Th2)” value was “low” and the “IL-10 level (Treg)” value is “increased”. Besides, the “IL-17A level (Th17)” value in test [3] (lung homogenates, infected and Tα1-treated C57BL/6 and Cftr−/− mice) is “decreased”.
